Measured values: patent publication US6897288B1, “Mage-A12 antigenic peptides and uses thereof” (Ludwig Institute for Cancer Research, priority 1999, dated 2005)

Test system: autologous cell line LB-831-EBV pulsed with MAGE-A12 peptides, lysis by CTL 501D/19 (HLA-Cw*07 restricted)
Assay: Chromium release cytotoxicity assay with peptide-pulsed cells
Assay type: cell-based, human
Conditions: effector to target ratio of 10, chromium release after 4 hours; for sensitization of peptide-pulsed LB-831-EBV cells to lysis by CTL 501D/19 (recognition by CTL): chromium-labeled cells pulsed 30 min with peptide
Experimental: The lytic activity of CTLs was tested in a chromium release assay as described previously (Boon et al., J. Exp. Med. 152:1184-1193, 1980). Briefly, 1,000 chromium-labeled cells in 100 μl were incubated in 96-well microplates with an equal volume of CTL at different effector to target ratios. Chromium release was measured after 4 h of incubation. For the peptide assay, labeled LB831-EBV cells were incubated for 30 min at 37° C. with various concentrations of peptides. CTL were then added and chromium release was measured as described above.
Cells transfected with fragments of 540 bp or more were capable of stimulating CTL 501D/19, whereas those transfected with shorter fragments were not. […] In the amino-acid sequence corresponding to nucleotides 525-540, two overlapping nonapeptides, EVVRIGHLY (codons 168-176 of MAGE-A12; SEQ ID NO:3) and VRIGHLYIL (codons 170-178 of MAGE-A12; SEQ ID NO:4) were found which conformed to the HLA-Cw7 peptide binding motif, i.e. tyrosine or leucine at the C terminus (Rammensee et al., Immunogenetics. 41:178, 1995). Decapeptide […] (SEQ ID NO:5), nonapeptide VRIGHLYIL (SEQ ID NO:4) and octapeptide RIGHLYIL (SEQ ID NO:6) sensitized the autologous lymphoblastoid cell line LB-83]-EBV to lysis by CTL 501D/19 (FIG. 4). Autologous cell line LB-831-EBV was loaded with MAGE-A12 peptides VRIGHLYIL (SEQ ID NO:4), VVRIGHLYIL (SEQ ID NO:5), or RIGHLYIL (SEQ ID NO:6), and contacted with CTL 501D/19. Chromium-labeled cells were pulsed for 30 min with the indicated concentrations of peptides (VRIGHLYIL (SEQ ID NO:4) or […] (SEQ ID NO:6)). CTL 501D/19 was added at an effector to target ratio of 10. Chromium release was measured after 4 hours.

VRIGHLYIL [SEQ ID NO:4]
EC50 (LB-831-EBV cells pulsed 30 min, read-out: peptide concentration giving half-maximal lysis by CTL 501D/19): 0.1 nM
sensitization of peptide-pulsed LB-831-EBV cells to lysis by CTL 501D/19 (recognition by CTL): sensitized

VVRIGHLYIL [SEQ ID NO:5]
sensitization of peptide-pulsed LB-831-EBV cells to lysis by CTL 501D/19 (recognition by CTL): sensitized

RIGHLYIL [SEQ ID NO:6]
sensitization of peptide-pulsed LB-831-EBV cells to lysis by CTL 501D/19 (recognition by CTL): sensitized

EVVRIGHLY (listed as Homo sapiens) [SEQ ID NO:3, nonapeptide, codons 168-176 of MAGE-A12]
sensitization of peptide-pulsed LB-831-EBV cells to lysis by CTL 501D/19 (recognition by CTL): not recognized
